In the NIST ThermoML archive (doi:10.1016/j.jct.2014.07.010):

Experiment: osmotic coefficient (dimensionless); mn = molality of the nth substance listed, in mol/kg
Conditions: 298.15 K, Liquid, isopiestic method

O=S(=O)([O-])[O-].[K+].[K+] [potassium sulfate] + O
Conditions | osmotic coefficient
m1 = 0.4526 | 0.693
m1 = 0.4667 | 0.692
m1 = 0.4747 | 0.691
m1 = 0.5108 | 0.686
m1 = 0.5495 | 0.682
m1 = 0.5708 | 0.68
m1 = 0.6064 | 0.677
m1 = 0.6321 | 0.675
m1 = 0.6366 | 0.673
m1 = 0.6529 | 0.673
